{"source": "paper PMC12040169", "about": "(PLOS Biology, 2025)", "data": [{"experiment": "in vitro", "conditions": "human, hela cells, % viability", "units": {"viability at 28.5 h, 10 µM": "%"}, "values": [{"smiles": "COC(=O)c1cn(C(=O)CCCN2C(=O)c3ccccc3C2=O)c2ccccc12", "note": "[CBK266799]", "viability at 28.5 h, 10 µM": 91.7}, {"smiles": "COc1cc(NC(=O)c2ccc3c(c2)C(=O)N(Cc2cccnc2)C3=O)c(C(=O)O)cc1OC", "note": "[CBK266802]", "viability at 28.5 h, 10 µM": 88.1}, {"smiles": "CC1(C)CC(NS(=O)(=O)c2ccc(Br)cc2)CC(C)(C)N1", "note": "[CBK266805]", "viability at 28.5 h, 10 µM": 97.7}, {"smiles": "CC1(C)CC(NC(=O)COc2ccc([N+](=O)[O-])cc2)CC(C)(C)N1", "note": "[CBK266806]", "viability at 28.5 h, 10 µM": 98}, {"smiles": "CC(CNS(=O)(=O)c1cc(Cl)ccc1Cl)CN(C)C", "note": "(stereo not drawn) [CBK266808]", "viability at 28.5 h, 10 µM": 108}, {"smiles": "Cc1ccc(NC(=O)COc2ccccc2)c(NC(=O)c2ccco2)c1", "note": "[CBK266809]", "viability at 28.5 h, 10 µM": 95.6}, {"smiles": "O=C(Nc1ccccc1)c1ccc(N2CCN(c3ccccn3)CC2)c(S(=O)(=O)N2CCOCC2)c1", "note": "[CBK266810]", "viability at 28.5 h, 10 µM": 91.7}, {"smiles": "CS(=O)(=O)N1CCC(C(=O)NNC(=S)Nc2cccc3ccccc23)CC1", "note": "[CBK266811]", "viability at 28.5 h, 10 µM": 84.2}, {"smiles": "S=C(NCCc1ccc(Cl)cc1)NCc1ccco1", "note": "[CBK266812]", "viability at 28.5 h, 10 µM": 83.3}, {"smiles": "NS(=O)(=O)c1ccc(NC(=O)C2CCCN(S(=O)(=O)c3ccc(Cl)cc3)C2)cc1", "note": "(stereo not drawn) [CBK266813]", "viability at 28.5 h, 10 µM": 91.7}, {"smiles": "Cc1ccc(C)c(S(=O)(=O)NC(Cc2c[nH]c3ccccc23)C(=O)O)c1", "note": "(stereo not drawn) [CBK266816]", "viability at 28.5 h, 10 µM": 105}, {"smiles": "O=C(NNC(=S)NCCc1ccccc1)c1ccc(Br)o1", "note": "[CBK266818]", "viability at 28.5 h, 10 µM": 96.3}, {"smiles": "COc1ccc(C(=O)Nc2ccc3c(c2)nc2n3CCN(Cc3ccccc3)C2)cc1", "note": "[CBK266820]", "viability at 28.5 h, 10 µM": 82.5}, {"smiles": "COc1cccc(/C=C\\c2[nH]c(=O)[nH]c(=O)c2[N+](=O)[O-])c1OCC(=O)O", "note": "[CBK266822]", "viability at 28.5 h, 10 µM": 104}, {"smiles": "O=C(CCSc1ccccc1)Nc1ccc(Br)cc1F", "note": "[CBK266825]", "viability at 28.5 h, 10 µM": 101}, {"smiles": "CN1CCN(C(=S)c2ccc(OCC(=O)Nc3cccc(C(F)(F)F)c3)cc2)CC1", "note": "[CBK266826]", "viability at 28.5 h, 10 µM": 92.2}, {"smiles": "Cc1cc(=O)oc2cc(NC(=S)NNC(=O)c3ccc(Cl)s3)ccc12", "note": "[CBK266828]", "viability at 28.5 h, 10 µM": 92.3}, {"smiles": "COC(=O)c1ccccc1NC(=O)Nc1ccc(N2CCOCC2)c2nonc12", "note": "[CBK266830]", "viability at 28.5 h, 10 µM": 90.6}, {"smiles": "COc1ccc(NC(=O)Nc2nn(Cc3c(F)cccc3Cl)cc2Br)c(OC)c1", "note": "[CBK266834]", "viability at 28.5 h, 10 µM": 83.8}, {"smiles": "COc1ccc(OC)c(S(=O)(=O)N2CCC(C(=O)O)CC2)c1", "note": "[CBK266835]", "viability at 28.5 h, 10 µM": 83.5}, {"smiles": "O=C(CC1NCCNC1=O)Nc1ccc2c(c1)OCCO2", "note": "(stereo not drawn) [CBK266837]", "viability at 28.5 h, 10 µM": 99.3}, {"smiles": "COc1ccccc1N1CCN(CCNC(=O)Nc2cccc(C)c2C)CC1", "note": "[CBK266839]", "viability at 28.5 h, 10 µM": 90.2}, {"smiles": "CCN(CC)CCN1C(=O)c2oc3cc(C)c(C)cc3c(=O)c2C1c1cc(Br)c(O)c(OC)c1", "note": "(stereo not drawn) [CBK266846]", "viability at 28.5 h, 10 µM": 105}, {"smiles": "CC(=O)c1cccc(NC(=O)C2CCCN(S(=O)(=O)c3ccc(Cl)cc3)C2)c1", "note": "(stereo not drawn) [CBK266847]", "viability at 28.5 h, 10 µM": 102}, {"smiles": "CCOc1cc(-c2cc(C(=O)O)c3ccccc3n2)ccc1O", "note": "[CBK266848]", "viability at 28.5 h, 10 µM": 103}, {"smiles": "CCNS(=O)(=O)c1ccc(NC(=O)Nc2cc(C)ccc2OC)cc1", "note": "[CBK266850]", "viability at 28.5 h, 10 µM": 106}, {"smiles": "O=C(CN1CCOCC1)NCCNc1c(Cl)c(Cl)c(Cl)c(Cl)c1Cl", "note": "[CBK266851]", "viability at 28.5 h, 10 µM": 84.7}, {"smiles": "CCOc1cc(C(=S)N2CCN(C)CC2)ccc1OCC(=O)N1CCOCC1", "note": "[CBK266856]", "viability at 28.5 h, 10 µM": 101}, {"smiles": "O=C(NCCNC1CCC(c2ccccc2)CC1)c1ccc(F)cc1", "note": "(stereo not drawn) [CBK266857]", "viability at 28.5 h, 10 µM": 88.2}, {"smiles": "COc1ccccc1-c1nnc(Sc2nc([N+](=O)[O-])nn2C)o1", "note": "[CBK266858]", "viability at 28.5 h, 10 µM": 85.1}, {"smiles": "Cc1ccc(S(=O)(=O)N2C(=O)CCC2C(=O)O/N=C(\\N)c2cccnc2)cc1", "note": "(stereo not drawn) [CBK266864]", "viability at 28.5 h, 10 µM": 111}, {"smiles": "CCN1CCCC1CNC(=O)C(=O)Nc1ccccc1OC", "note": "(stereo not drawn) [CBK266865]", "viability at 28.5 h, 10 µM": 103}, {"smiles": "Cc1ccc(C(=O)NNC(=S)Nc2ccc(S(N)(=O)=O)cc2)cc1[N+](=O)[O-]", "note": "[CBK266866]", "viability at 28.5 h, 10 µM": 95.6}, {"smiles": "C=CCn1c(SCC(=O)Nc2cc(Cl)ccc2C)nnc1-c1ccccc1O", "note": "[CBK266867]", "viability at 28.5 h, 10 µM": 94.5}, {"smiles": "CCn1c2ccccc2n2c(SCC(=O)O)nnc12", "note": "[CBK266869]", "viability at 28.5 h, 10 µM": 91.4}, {"smiles": "O=C(NCCNCc1ccco1)c1ccc(F)cc1", "note": "[CBK266873G]", "viability at 28.5 h, 10 µM": 103}, {"smiles": "Cc1cccc(Cn2cnc(NC(=O)Nc3cccc(Cl)c3C)n2)c1", "note": "[CBK266876]", "viability at 28.5 h, 10 µM": 89.5}, {"smiles": "COC(=O)c1sc2cc(NC(=S)NNC(=O)c3ccoc3C)ccc2c1Cl", "note": "[CBK266877]", "viability at 28.5 h, 10 µM": 83.3}, {"smiles": "O=S(=O)(c1ccc(Cl)cc1)N1CCN(S(=O)(=O)N2CCOCC2)CC1", "note": "[CBK266878]", "viability at 28.5 h, 10 µM": 92.9}, {"smiles": "CCN1CCN(C(=O)C2CCN(S(=O)(=O)c3ccc(Br)cc3)CC2)CC1", "note": "[CBK266881]", "viability at 28.5 h, 10 µM": 103}, {"smiles": "O=C(NNC(=O)c1cc2ccccc2cc1O)Nc1cccc([N+](=O)[O-])c1", "note": "[CBK266882]", "viability at 28.5 h, 10 µM": 101}, {"smiles": "COc1ccc(N(CC(=O)Nc2c(F)cccc2F)S(=O)(=O)c2ccccc2)cc1", "note": "[CBK266883]", "viability at 28.5 h, 10 µM": 95.2}]}]}
